Test results: US12116358B2, “Substituted indoles and methods of use thereof” (EPIZYME, INC., priority 2018, dated 2024)
Read-outs that look alike come from different tables or passages of the source.

Tests used:
SETD2(1434-1711) = molecular target: T1, SETD2(1434-1711) (Homo sapiens, UniProt Q9BYW2); experiment: SETD2 (1434-1711) assay; assay type: biochemical; settings: read-out: SETD2 (1434-1711)
T1 construct: SETD2 (1434-1711) Assay; catalogue N/A
T1 sequence (Q9BYW2 1434-1711): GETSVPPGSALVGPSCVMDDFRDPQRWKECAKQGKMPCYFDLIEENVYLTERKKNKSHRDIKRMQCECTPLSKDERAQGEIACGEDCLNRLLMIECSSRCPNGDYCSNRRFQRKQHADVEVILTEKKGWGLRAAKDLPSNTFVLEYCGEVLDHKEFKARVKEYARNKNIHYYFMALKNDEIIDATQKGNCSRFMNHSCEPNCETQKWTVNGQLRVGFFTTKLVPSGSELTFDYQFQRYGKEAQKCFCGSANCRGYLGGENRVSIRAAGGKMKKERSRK

H3K36me3 in A549 cells = experiment: In-Cell Western (ICW) assay of SETD2 inhibitors (A549 assay); assay type: cell-based, human; settings: A549 cells, read-out: SETD2 A549
Summary of the method: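 A549 cells seeded at 4,000/well onto compound and incubated 3 days at 37° C. Methanol-fixed cells stained overnight at 4° C with anti-H3K36me3 (1:1000), then IRDye 800CW secondary with DRAQ5 DNA counterstain. Plates read by Licor imaging at 700 and 800 channels.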

Structure (SMILES) | IC50 (SETD2(1434-1711)) [nM] | IC50 (H3K36me3 in A549 cells) [nM] | IC50 (H3K36me3 in A549 cells; Homo sapiens) [nM]
CC(=O)N1CCN(c2cc(NC(=O)c3cc4c(F)ccc(C)c4[nH]3)ccc2F)CC1 [compound 79] | 70 | 200 | –
Cc1ccc(F)c2cc(C(=O)Nc3cccc(N4CCC(C)(O)CC4)c3)[nH]c12 [compound 87] | 100 | – | 200
CCN1CCN(c2cccc(NC(=O)c3cc4c(F)ccc(C)c4[nH]3)c2)CC1=O [compound 88] | 50 | 200 | –
Cc1ccc(F)c2cc(C(=O)Nc3cccc(N4CCN(C(=O)CF)CC4)c3)[nH]c12 [compound 92] | 30 | 200 | –
Cc1ccc(F)c2cc(C(=O)Nc3cccc(N4CCN(C(=O)C5CC5)CC4)c3)[nH]c12 [compound 93] | 60 | 200 | –
Cc1ccc(F)c2cc(C(=O)Nc3cc(F)cc([C@@H]4CCN5C(=O)CC[C@H]5C4)c3)[nH]c12 [compound 96] | 40 | 200 | –
Cc1ccc(F)c2cc(C(=O)Nc3cccc(N4CCC(N(C)CCF)C4)c3)[nH]c12 (stereo not shown) [compound 97] | 40 | 200 | –
Cc1ccc(F)c2cc(C(=O)Nc3cccc(C4CCOCC4)c3)[nH]c12 [compound 101] | 50 | 200 | –
Cc1ccc(F)c2cc(C(=O)Nc3cccc(-c4nnc(CO)s4)c3)[nH]c12 [compound 107] | 40 | 200 | –
Cc1ccc(F)c2cc(C(=O)Nc3cccc(-c4cnco4)c3)[nH]c12 [compound 108] | 60 | – | 200
Cc1ccc(F)c2cc(C(=O)Nc3cccc(N4CCC5(CC4)CN(CC(F)(F)F)C5)c3)[nH]c12 [compound 110] | 100 | 200 | –
Cc1ccc(F)c2cc(C(=O)Nc3cc(F)cc(C4CCN5C(=O)CC[C@@H]5C4)c3)[nH]c12 (stereo partly shown) [compound 114] | 60 | – | 200
Cc1ccc(F)c2cc(C(=O)Nc3cccc(-c4ccncc4)c3)[nH]c12 [compound 116] | 40 | – | 200
Cc1ccc(F)c2cc(C(=O)Nc3cccc(N4CCCC4=O)c3)[nH]c12 [compound 118] | 50 | – | 200
COC(=O)N1CCN(c2cccc(NC(=O)c3cc4c(F)ccc(C)c4[nH]3)c2)CC1 [compound 121] | 50 | 300 | –
CC(=O)N1CCCC(c2cccc(NC(=O)c3cc4c(F)ccc(C)c4[nH]3)c2)C1 (stereo not shown) [compound 123] | 50 | – | 300
Cc1ccc(F)c2cc(C(=O)Nc3cccc(N4CCCS4(=O)=O)c3)[nH]c12 [compound 125] | 80 | – | 300
Cc1ccc(F)c2cc(C(=O)Nc3cccc(N4CCC(O)CC4)c3)[nH]c12 [compound 126] | 50 | – | 300
COC(=O)N1CCC2(CCN(c3cccc(NC(=O)c4cc5c(F)ccc(C)c5[nH]4)c3)CC2)C1 [compound 127] | 40 | – | 300
Cc1ccc(F)c2cc(C(=O)Nc3cccc(N4CCOC(C)C4)c3)[nH]c12 (stereo not shown) [compound 129] | 60 | – | 300
Cc1ccc(F)c2cc(C(=O)Nc3cccc(N4CCC(N(C)CCF)C4)c3)[nH]c12 (stereo not shown) [compound 130] | 40 | – | 300

Next, values leading:

IC50 (SETD2(1434-1711)) [nM] | IC50 (H3K36me3 in A549 cells) [nM] | IC50 (H3K36me3 in A549 cells; Homo sapiens) [nM] | Structure (SMILES)
30 | 200 | – | COCc1nnc(-c2cccc(NC(=O)c3cc4c(F)ccc(C)c4[nH]3)c2)s1 [compound 81]
20 | 200 | – | COC(=O)N1CCC2(CC1)CCN(c1cccc(NC(=O)c3cc4c(F)ccc(C)c4[nH]3)c1)C2 [compound 83]
40 | 200 | – | CC(=O)N1CCN(c2cccc(NC(=O)c3cc4c(F)ccc(Br)c4[nH]3)c2)CC1 [compound 84]
5 | 200 | – | Cc1ccc(F)c2cc(C(=O)Nc3cccc(N4CCC5(CCCN5)CC4)c3)[nH]c12 [compound 86]
30 | – | 200 | Cc1ccc(F)c2cc(C(=O)Nc3cc(F)cc(C4CCN(C5CC(=O)N(C)C5)C4)c3)[nH]c12 (stereo not shown) [compound 89]
30 | 200 | – | Cc1ccc(F)c2cc(C(=O)Nc3cccc([C@H]4CCN5C(=O)CC[C@H]5C4)c3)[nH]c12 [compound 90]
10 | 200 | – | Cc1ccc(F)c2cc(C(=O)Nc3cc(Cl)cc(N4CCN(C)CC4)c3)[nH]c12 [compound 91]
20 | 200 | – | Cc1ccc(F)c2cc(C(=O)Nc3cccc(N4CC[C@@H](N(C)C)C4)c3)[nH]c12 [compound 94]
20 | – | 200 | Cc1ccc(F)c2cc(C(=O)Nc3cccc(N4CCC5(CC4)COCCN5)c3)[nH]c12 [compound 95]
9 | 200 | – | Cc1ccc(F)c2cc(C(=O)Nc3cccc(N4CCC5(CC4)CN(C)C5)c3)[nH]c12 [compound 98]
30 | 200 | – | Cc1ccc(F)c2cc(C(=O)Nc3cccc(N4CCC(N(C)C)C(C)C4)c3)[nH]c12 (stereo not shown) [compound 99]
30 | 200 | – | Cc1ccc(F)c2cc(C(=O)Nc3cccc(N4CCN(C5CC5)C(=O)C4)c3)[nH]c12 [compound 100]
20 | 200 | – | Cc1ccc(F)c2cc(C(=O)Nc3cccc(N4CC[C@H](N(C)C)C4)c3)[nH]c12 [compound 102]
30 | 200 | – | Cc1ccc(F)c2cc(C(=O)Nc3cccc(N4CCC(CO)(CO)CC4)c3)[nH]c12 [compound 103]
30 | 200 | – | CC(=O)N1CCCC12CCN(c1cc(F)cc(NC(=O)c3cc4c(F)ccc(C)c4[nH]3)c1)CC2 [compound 104]
8 | 200 | – | Cc1ccc(F)c2cc(C(=O)Nc3cc(F)cc(N4C[C@@H]5CCN(C)[C@@H]5C4)c3)[nH]c12 [compound 105]
3 | 200 | – | Cc1ccc(F)c2cc(C(=O)Nc3cc(Cl)cc([C@H]4CC[C@@H](N(C)C)CC4)c3)[nH]c12 [compound 106]
10 | 200 | – | COCCN1CCC2(CC1)CN(c1cccc(NC(=O)c3cc4c(F)ccc(C)c4[nH]3)c1)C2 [compound 109]
8 | 200 | – | Cc1ccc(F)c2cc(C(=O)Nc3cccc(N4CC[C@H](N(C)C)[C@H](C)C4)c3)[nH]c12 [compound 111]
30 | 200 | – | COC(=O)N1CCC2(CC1)CN(c1cccc(NC(=O)c3cc4c(F)ccc(C)c4[nH]3)c1)C2 [compound 112]
20 | 200 | – | Cc1ccc(F)c2cc(C(=O)Nc3cccc(N4CCC(CN(C)C)CC4)c3)[nH]c12 [compound 117]
30 | 200 | – | Cc1ccc(F)c2cc(C(=O)Nc3cccc(-c4nnc(C5CC5)o4)c3)[nH]c12 [compound 119]
6 | – | 300 | Cc1ccc(F)c2cc(C(=O)Nc3cc(Cl)cc(N4CCC(N(C)C)C4)c3)[nH]c12 (stereo not shown) [compound 120]
10 | – | 300 | Cc1ccc(F)c2cc(C(=O)Nc3cc(F)cc(N4C[C@H]5CCN(C)[C@H]5C4)c3)[nH]c12 [compound 122]
7 | – | 300 | Cc1ccc(F)c2cc(C(=O)Nc3cccc(N4CC5CCCNC5C4)c3)[nH]c12 (stereo not shown) [compound 124]
10 | – | 300 | CNC1CCN(c2cccc(NC(=O)c3cc4c(F)ccc(C)c4[nH]3)c2)C1 (stereo not shown) [compound 128]
